Measured values published in PMC3956872 (PLoS ONE, 2014).

Each compound was assayed against T1, TcAAAP069 (Trypanosoma cruzi, UniProt Q4DAV2) (assay: cell-based). Conditions: read-out: % inhibition at 10 mM.
T1 construct: gene Tc00.1047053504069.120; full-length gene in pTREXL, overexpressed in T. cruzi epimastigotes (also p416/pDR196 in S. cerevisiae MG266 gap1 put4); about 10 transmembrane spans; allele TcAAAP229 has a 62-residue N-terminal extension
T1 sequence (Q4DAV2 entry or part of it): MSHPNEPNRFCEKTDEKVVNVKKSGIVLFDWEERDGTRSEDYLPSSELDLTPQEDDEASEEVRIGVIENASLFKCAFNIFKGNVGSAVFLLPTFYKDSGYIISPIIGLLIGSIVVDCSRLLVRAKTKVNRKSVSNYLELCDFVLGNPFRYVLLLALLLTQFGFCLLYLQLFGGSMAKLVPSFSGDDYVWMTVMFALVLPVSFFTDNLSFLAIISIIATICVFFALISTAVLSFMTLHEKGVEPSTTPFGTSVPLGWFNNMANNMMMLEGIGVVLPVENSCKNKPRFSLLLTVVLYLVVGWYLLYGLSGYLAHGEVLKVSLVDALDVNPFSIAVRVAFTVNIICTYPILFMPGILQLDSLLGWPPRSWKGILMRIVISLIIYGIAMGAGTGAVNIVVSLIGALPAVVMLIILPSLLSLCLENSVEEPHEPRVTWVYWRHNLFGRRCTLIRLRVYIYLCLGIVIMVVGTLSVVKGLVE

Compound | inhibition at 10000 µM
O=C(O)[C@H]1CCCN1 [D-proline] | 76.3%
O=C(O)[C@@H]1C[C@@H](O)CN1 [hydroxyproline] | 91.8%
O=C(O)[C@@H]1CSCN1 [L-thiazolidine-4-carboxylic acid] | 44.2%
